Columns and labels:
E. coli = conditions: recombinant fermentative production in E. coli; cited from earlier work
microbial cells = conditions: cited from earlier work
[1] = 20° C.; cited from earlier work
[2] = tested on: artificial enzyme cascade; test: Solvent tolerance of the artificial enzyme cascade (glucose to ethanol with increasing isobutanol); assay type: biochemical
Description: A key characteristic of cell-free systems is their pronounced tolerance against higher alcohols.
All reactions were set up in 20 ml GC vials. Reaction mixtures contained 100 mM HEPES (pH 7 at 50° C.), 0.1 mM thiamine-pyrophosphate, 2.5 mM MgCl2, 25 mM D-glucose and 5 mM NAD. […] Reaction mixtures were placed in a water bath at 50° C. and gently stirred at 100 rpm.

Compound	isobutanol titers that induce toxic effects in the microbial production host (E. coli)	isobutanol concentration that results in loss of productivity of microbial cells (microbial cells)	restricted miscibility in water [1]	ethanol produced in the presence of 6% (v/v) isobutanol ([2]; 6% (v/v) isobutanol, in 8 h) [mM]	isobutanol concentration up to which cell-free ethanol productivity and reaction kinetics were not significantly affected ([2]; glucose to ethanol as in Example 1, 50° C.)
CC(C)CO [isobutanol]	1-2 % (v/v)	ca. 1 % v/v	9-10%	1.4	up to 4 % (v/v)
CCCCO [n-Butanol]	–	–	7-8%	–	–
CCC(C)O (stereo not shown) [2-Butanol]	–	–	about 12%	–	–

From patent publication US20150218594A1, “CELL-FREE AND MINIMIZED METABOLIC REACTION CASCADES FOR THE PRODUCTION OF CHEMICALS” (CLARIANT PRODUKTE (DEUTSCHLAND) GMBH, priority 2012, published 2015)
